# Tests used:
# Conditions in all cases: Compound concentration 1000.0 nM
# [1] = tested on: Tyrosine-protein kinase ABL1 (Homo sapiens), P00519 [H396P]
# [2] = tested on: Tyrosine-protein kinase ABL1 (Homo sapiens), P00519 [Y253F]
# [3] = target: Aurora kinase B (Homo sapiens) (UniProt Q96GD4)
# [4] = target: Serine/threonine-protein kinase BRSK2 (Homo sapiens) (UniProt Q8IWQ3)
# [5] = target: Cyclin-dependent kinase 11A (Homo sapiens) (UniProt Q9UQ88)
# [6] = target: Cyclin-dependent kinase 13 (Homo sapiens) (UniProt Q14004)
# [7] = target: Cyclin-dependent kinase 4 (Homo sapiens) (UniProt P11802)
# [8] = target: Cyclin-dependent kinase-like 3 (Homo sapiens) (UniProt Q8IVW4)
# [9] = target: Dual specificity protein kinase CLK2 (Homo sapiens) (UniProt P49760)
# [10] = target: Casein kinase I isoform delta (Homo sapiens) (UniProt P48730)
# [11] = target: Myotonin-protein kinase (Homo sapiens) (UniProt Q09013)
# [12] = tested on: Epidermal growth factor receptor (Homo sapiens), P00533 [L858R]
# [13] = target: Mitogen-activated protein kinase 7 (Homo sapiens) (UniProt Q13164)
# [14] = tested on: Fibroblast growth factor receptor 3 (Homo sapiens), P22607 [G697C]
# [15] = tested on: Receptor-type tyrosine-protein kinase FLT3 (Homo sapiens), P36888 [UNDEFINED MUTATION]
# Receptor-type tyrosine-protein kinase FLT3 (Homo sapiens), P36888 [UNDEFINED MUTATION], sequence (P36888 whole entry, looked up, change not shown): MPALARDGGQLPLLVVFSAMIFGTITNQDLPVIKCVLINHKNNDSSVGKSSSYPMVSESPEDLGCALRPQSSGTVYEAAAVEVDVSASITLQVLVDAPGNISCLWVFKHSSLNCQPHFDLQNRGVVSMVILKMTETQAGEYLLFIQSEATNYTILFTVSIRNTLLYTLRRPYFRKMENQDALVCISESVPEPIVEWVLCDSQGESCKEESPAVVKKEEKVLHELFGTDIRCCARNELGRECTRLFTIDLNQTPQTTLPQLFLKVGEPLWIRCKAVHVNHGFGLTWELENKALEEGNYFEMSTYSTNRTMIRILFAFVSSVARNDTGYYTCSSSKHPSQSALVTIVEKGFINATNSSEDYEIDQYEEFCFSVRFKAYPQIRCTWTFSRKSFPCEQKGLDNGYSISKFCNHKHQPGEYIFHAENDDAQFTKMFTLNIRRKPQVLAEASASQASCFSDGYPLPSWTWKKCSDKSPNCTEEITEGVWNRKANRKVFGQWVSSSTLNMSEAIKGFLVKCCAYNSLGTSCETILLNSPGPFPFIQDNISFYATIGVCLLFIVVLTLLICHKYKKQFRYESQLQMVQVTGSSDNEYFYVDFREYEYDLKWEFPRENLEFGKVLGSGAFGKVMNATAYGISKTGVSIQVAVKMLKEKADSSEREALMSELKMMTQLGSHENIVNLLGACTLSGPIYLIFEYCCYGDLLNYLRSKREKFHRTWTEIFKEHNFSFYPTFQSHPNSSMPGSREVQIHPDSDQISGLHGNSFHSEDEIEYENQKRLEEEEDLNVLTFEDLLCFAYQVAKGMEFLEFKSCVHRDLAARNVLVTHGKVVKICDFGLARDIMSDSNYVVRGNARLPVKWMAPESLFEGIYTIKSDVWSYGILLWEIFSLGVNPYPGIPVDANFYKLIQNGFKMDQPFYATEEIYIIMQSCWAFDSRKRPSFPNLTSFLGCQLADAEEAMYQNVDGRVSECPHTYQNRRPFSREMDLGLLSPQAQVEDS
# [16] = tested on: Receptor-type tyrosine-protein kinase FLT3 (Homo sapiens), P36888 [UNDEFINED MUTATION]; remark: listed apart in the source
# [17] = target: Glycogen synthase kinase-3 alpha (Homo sapiens) (UniProt P49840)
# [18] = target: Homeodomain-interacting protein kinase 1 (Homo sapiens) (UniProt Q86Z02)
# [19] = target: Hormonally up-regulated neu tumor-associated kinase (Homo sapiens) (UniProt P57058)
# [20] = target: Mast/stem cell growth factor receptor Kit (Homo sapiens) (UniProt P10721)
# Mast/stem cell growth factor receptor Kit (Homo sapiens), sequence (P10721 whole entry): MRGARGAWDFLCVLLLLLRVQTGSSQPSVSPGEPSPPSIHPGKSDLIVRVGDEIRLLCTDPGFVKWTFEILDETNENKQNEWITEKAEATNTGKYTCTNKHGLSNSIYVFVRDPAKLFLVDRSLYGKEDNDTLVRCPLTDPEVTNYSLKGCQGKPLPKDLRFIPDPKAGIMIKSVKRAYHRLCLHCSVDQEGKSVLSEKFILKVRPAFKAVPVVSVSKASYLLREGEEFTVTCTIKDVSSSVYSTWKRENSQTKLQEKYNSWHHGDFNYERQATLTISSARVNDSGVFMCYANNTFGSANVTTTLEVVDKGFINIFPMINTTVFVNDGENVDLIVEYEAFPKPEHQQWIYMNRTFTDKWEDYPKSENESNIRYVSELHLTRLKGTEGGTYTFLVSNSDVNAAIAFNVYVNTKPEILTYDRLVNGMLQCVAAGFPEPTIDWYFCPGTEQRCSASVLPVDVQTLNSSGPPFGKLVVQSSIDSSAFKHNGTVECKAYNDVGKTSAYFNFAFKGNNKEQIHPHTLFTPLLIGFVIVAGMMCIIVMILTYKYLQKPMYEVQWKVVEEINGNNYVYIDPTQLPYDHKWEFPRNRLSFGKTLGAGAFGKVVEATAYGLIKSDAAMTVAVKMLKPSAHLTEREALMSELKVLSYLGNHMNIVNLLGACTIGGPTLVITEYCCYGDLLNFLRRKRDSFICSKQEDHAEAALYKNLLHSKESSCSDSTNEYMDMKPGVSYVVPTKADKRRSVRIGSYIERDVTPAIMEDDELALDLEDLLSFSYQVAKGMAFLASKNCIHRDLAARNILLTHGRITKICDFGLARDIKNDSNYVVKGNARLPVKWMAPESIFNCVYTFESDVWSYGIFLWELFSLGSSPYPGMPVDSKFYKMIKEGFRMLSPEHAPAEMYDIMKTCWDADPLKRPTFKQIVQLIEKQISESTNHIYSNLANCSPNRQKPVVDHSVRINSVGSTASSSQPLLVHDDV
# [21] = tested on: Mast/stem cell growth factor receptor Kit (Homo sapiens), P10721 [D816V]
# Mast/stem cell growth factor receptor Kit (Homo sapiens), P10721 [D816V], sequence (P10721 whole entry D816V): as the sequence (P10721 whole entry) above, with D816V counted along it
# [22] = target: Serine/threonine-protein kinase 10 (Homo sapiens) (UniProt O94804)
# [23] = target: Mitogen-activated protein kinase kinase kinase 2 (Homo sapiens) (UniProt Q9Y2U5)
# [24] = target: Dual specificity mitogen-activated protein kinase kinase 5 (Homo sapiens) (UniProt Q13163)
# Dual specificity mitogen-activated protein kinase kinase 5 (Homo sapiens), sequence (Q13163 whole entry): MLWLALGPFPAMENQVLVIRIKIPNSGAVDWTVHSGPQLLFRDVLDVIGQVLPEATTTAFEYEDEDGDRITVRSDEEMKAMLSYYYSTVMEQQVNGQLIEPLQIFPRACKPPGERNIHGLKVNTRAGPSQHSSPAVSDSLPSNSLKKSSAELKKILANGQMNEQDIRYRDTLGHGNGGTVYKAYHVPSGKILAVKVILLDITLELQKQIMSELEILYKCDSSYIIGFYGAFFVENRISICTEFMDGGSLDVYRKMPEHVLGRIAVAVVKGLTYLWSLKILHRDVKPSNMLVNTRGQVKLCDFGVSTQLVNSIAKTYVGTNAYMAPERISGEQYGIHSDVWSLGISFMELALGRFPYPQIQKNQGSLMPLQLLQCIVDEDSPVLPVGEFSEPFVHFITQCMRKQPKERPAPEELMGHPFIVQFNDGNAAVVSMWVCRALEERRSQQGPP
# [25] = target: Serine/threonine-protein kinase MRCK alpha (Homo sapiens) (UniProt Q5VT25)
# [26] = target: Serine/threonine-protein kinase 24 (Homo sapiens) (UniProt Q9Y6E0)
# [27] = target: Mitogen-activated protein kinase 11 (Homo sapiens) (UniProt Q15759)
# [28] = target: Serine/threonine-protein kinase PAK 1 (Homo sapiens) (UniProt Q13153)
# [29] = target: 3-phosphoinositide-dependent protein kinase 1 (Homo sapiens) (UniProt O15530)
# [30] = target: Cyclin-dependent kinase 14 (Homo sapiens) (UniProt O94921)
# [31] = target: Phosphatidylinositol 4-kinase beta (Homo sapiens) (UniProt Q9UBF8)
# [32] = target: 1-phosphatidylinositol 3-phosphate 5-kinase (Homo sapiens) (UniProt Q9Y2I7)
# [33] = target: Serine/threonine-protein kinase pim-3 (Homo sapiens) (UniProt Q86V86)
# [34] = target: Serine/threonine-protein kinase PknB (Mycobacterium tuberculosis) (UniProt P9WI81)
# [35] = target: Serine/threonine-protein kinase PLK1 (Homo sapiens) (UniProt P53350)
# [36] = target: Protein kinase C delta type (Homo sapiens) (UniProt Q05655)
# [37] = target: Serine/threonine-protein kinase D2 (Homo sapiens) (UniProt Q9BZL6)
# [38] = target: Ribosomal protein S6 kinase alpha-4 (Homo sapiens) (UniProt O75676)
# [39] = target: SNF-related serine/threonine-protein kinase (Homo sapiens) (UniProt Q9NRH2)
# [40] = target: SRSF protein kinase 3 (Homo sapiens) (UniProt Q9UPE1)
# [41] = target: Serine/threonine-protein kinase 33 (Homo sapiens) (UniProt Q9BYT3)
# [42] = target: TGF-beta receptor type-1 (Homo sapiens) (UniProt P36897)
# [43] = target: TGF-beta receptor type-2 (Homo sapiens) (UniProt P37173)
# TGF-beta receptor type-2 (Homo sapiens), sequence (P37173 whole entry): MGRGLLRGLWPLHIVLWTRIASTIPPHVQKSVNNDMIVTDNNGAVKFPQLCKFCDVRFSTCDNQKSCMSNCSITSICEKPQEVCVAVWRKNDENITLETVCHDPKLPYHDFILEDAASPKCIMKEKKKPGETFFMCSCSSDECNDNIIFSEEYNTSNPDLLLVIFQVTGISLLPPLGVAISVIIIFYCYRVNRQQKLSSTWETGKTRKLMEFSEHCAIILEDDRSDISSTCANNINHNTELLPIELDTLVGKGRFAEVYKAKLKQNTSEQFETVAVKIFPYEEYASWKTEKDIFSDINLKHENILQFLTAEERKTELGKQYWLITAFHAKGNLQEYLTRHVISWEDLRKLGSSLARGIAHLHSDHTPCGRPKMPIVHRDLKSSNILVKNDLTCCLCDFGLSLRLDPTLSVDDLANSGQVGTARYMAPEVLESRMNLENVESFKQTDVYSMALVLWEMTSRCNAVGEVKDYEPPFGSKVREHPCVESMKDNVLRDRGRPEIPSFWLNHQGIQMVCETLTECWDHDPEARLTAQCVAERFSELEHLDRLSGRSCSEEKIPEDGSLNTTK
# [44] = target: Tyrosine-protein kinase TXK (Homo sapiens) (UniProt P42681)
# [45] = target: Serine/threonine-protein kinase ULK1 (Homo sapiens) (UniProt O75385)
# Serine/threonine-protein kinase ULK1 (Homo sapiens), sequence (O75385 whole entry): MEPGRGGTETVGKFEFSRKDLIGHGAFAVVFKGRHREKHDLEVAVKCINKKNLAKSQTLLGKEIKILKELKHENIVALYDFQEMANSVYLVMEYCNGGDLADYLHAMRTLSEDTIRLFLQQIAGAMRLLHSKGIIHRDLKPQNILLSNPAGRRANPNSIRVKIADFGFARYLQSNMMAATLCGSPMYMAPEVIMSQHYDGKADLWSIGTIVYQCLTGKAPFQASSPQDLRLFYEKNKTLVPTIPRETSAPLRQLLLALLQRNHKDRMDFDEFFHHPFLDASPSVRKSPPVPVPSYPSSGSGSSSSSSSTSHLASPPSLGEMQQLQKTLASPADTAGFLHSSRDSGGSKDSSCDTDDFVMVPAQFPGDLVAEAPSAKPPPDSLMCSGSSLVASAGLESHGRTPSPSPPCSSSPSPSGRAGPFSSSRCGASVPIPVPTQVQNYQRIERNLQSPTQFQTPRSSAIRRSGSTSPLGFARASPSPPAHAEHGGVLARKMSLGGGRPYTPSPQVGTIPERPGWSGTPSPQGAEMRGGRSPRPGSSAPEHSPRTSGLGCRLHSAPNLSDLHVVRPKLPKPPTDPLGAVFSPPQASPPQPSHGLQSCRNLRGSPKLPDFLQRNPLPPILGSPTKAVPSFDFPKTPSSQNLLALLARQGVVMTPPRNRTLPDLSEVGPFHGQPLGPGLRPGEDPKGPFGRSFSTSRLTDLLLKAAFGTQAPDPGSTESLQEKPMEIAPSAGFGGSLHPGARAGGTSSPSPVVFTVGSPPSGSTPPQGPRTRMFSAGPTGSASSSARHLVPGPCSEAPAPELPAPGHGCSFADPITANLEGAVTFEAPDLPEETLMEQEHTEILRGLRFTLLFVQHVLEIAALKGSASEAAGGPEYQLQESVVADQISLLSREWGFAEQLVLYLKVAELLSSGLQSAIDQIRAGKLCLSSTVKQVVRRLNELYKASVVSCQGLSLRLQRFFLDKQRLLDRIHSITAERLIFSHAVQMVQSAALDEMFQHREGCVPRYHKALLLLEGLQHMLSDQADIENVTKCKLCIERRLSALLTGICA
# [46] = target: Serine/threonine-protein kinase 32B (Homo sapiens) (UniProt Q9NY57)
# Serine/threonine-protein kinase 32B (Homo sapiens), sequence (Q9NY57 whole entry): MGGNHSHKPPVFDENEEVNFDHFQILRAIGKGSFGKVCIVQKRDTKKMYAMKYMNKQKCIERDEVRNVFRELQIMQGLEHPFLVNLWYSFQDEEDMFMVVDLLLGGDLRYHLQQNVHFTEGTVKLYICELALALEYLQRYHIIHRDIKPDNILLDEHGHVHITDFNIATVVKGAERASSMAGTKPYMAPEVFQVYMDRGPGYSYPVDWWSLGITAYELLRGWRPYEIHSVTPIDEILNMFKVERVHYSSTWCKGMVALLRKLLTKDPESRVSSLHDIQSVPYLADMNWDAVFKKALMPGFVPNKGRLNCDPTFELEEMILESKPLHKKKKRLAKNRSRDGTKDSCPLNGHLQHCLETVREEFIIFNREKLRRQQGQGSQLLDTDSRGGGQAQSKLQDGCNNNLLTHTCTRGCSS
smiles,measurement,setting,value
c1ccc(N2CCN(Cc3nc4ccccc4[nH]3)CC2)nc1 [ABT-724],residual activity,[1],87%
same,residual activity,[2],100%
same,residual activity,[3],18%
same,residual activity,[4],100%
same,residual activity,[5],100%
same,residual activity,[6],100%
same,residual activity,[7],100%
same,residual activity,[8],100%
same,residual activity,[9],89%
same,residual activity,[10],95%
same,residual activity,[11],100%
same,residual activity,[12],100%
same,residual activity,[13],100%
same,residual activity,[14],100%
same,residual activity,[15],100%
same,residual activity,[16],100%
same,residual activity,[17],66%
same,residual activity,[18],99%
same,residual activity,[19],100%
same,residual activity,[20],100%
same,residual activity,[21],100%
same,residual activity,[22],100%
same,residual activity,[23],100%
same,residual activity,[24],83%
same,residual activity,[25],100%
same,residual activity,[26],100%
same,residual activity,[27],88%
same,residual activity,[28],94%
same,residual activity,[29],89%
same,residual activity,[30],100%
same,residual activity,[31],100%
same,residual activity,[32],100%
same,residual activity,[33],100%
same,residual activity,[34],87%
same,residual activity,[35],100%
same,residual activity,[36],100%
same,residual activity,[37],91%
same,residual activity,[38],100%
same,residual activity,[39],100%
same,residual activity,[40],100%
same,residual activity,[41],97%
same,residual activity,[42],97%
same,residual activity,[43],88%
same,residual activity,[44],95%
same,residual activity,[45],100%
same,residual activity,[46],100%
CSc1cccnc1N1CCN(Cc2nc3ccccc3[nH]2)CC1 [A-769],residual activity,[1],75%
same,residual activity,[2],76%
same,residual activity,[3],67%
same,residual activity,[4],100%
same,residual activity,[5],100%
same,residual activity,[6],85%
same,residual activity,[7],84%
same,residual activity,[8],100%
same,residual activity,[9],100%
same,residual activity,[10],100%
same,residual activity,[11],81%
same,residual activity,[12],100%
same,residual activity,[13],100%
same,residual activity,[14],100%
same,residual activity,[15],100%
same,residual activity,[16],73%
same,residual activity,[17],100%
same,residual activity,[18],78%
same,residual activity,[19],100%
same,residual activity,[20],100%
same,residual activity,[21],90%
same,residual activity,[22],87%
same,residual activity,[23],82%
same,residual activity,[24],72%
same,residual activity,[25],100%
same,residual activity,[26],100%
same,residual activity,[27],100%
same,residual activity,[28],100%
same,residual activity,[29],99%
same,residual activity,[30],100%
same,residual activity,[31],73%
same,residual activity,[32],100%
same,residual activity,[33],94%
same,residual activity,[34],87%
same,residual activity,[35],78%
same,residual activity,[36],100%
same,residual activity,[37],100%
same,residual activity,[38],73%
same,residual activity,[39],100%
same,residual activity,[40],100%
same,residual activity,[41],91%
same,residual activity,[42],100%
same,residual activity,[43],99%
same,residual activity,[44],100%
same,residual activity,[45],88%
same,residual activity,[46],100%
